The values that follow come from US20160040240A1, “CACNA1C ALLELE AND TREATMENT OF MOOD DISORDERS” (THE UNIVERSITY OF CHICAGO, priority 2014, published 2016).

The subject of one data set is patient with TS Type 2. The data set can be described thus: Case report: treatment of a patient with Timothy Syndrome type 2 and bipolar disorder. The data set is classed as in vivo, human. An excerpt: The patient is a person with TS Type 2 (see below) diagnosed in childhood. The patient was referred for research evaluation after diagnosis of BD by one of us (FO). This was confirmed by interview with the patient and their parent, using the Diagnostic Interview for Genetic Studies (DIGS), version 3.0.
Ten months after starting the medication, they were referred to a neurologist, who found depression and prescribed citalopram.
They were restarted on their antidepressant and has been stable for the three years of observation since then. We note that this is not a typical course of BD, and that further observation will be needed to fully define their course.

The conditions of data set [1]: clinical use; cited from earlier work.
For data set [2] the following is noted: verapamil: particularly in males; cited from earlier work.
Data set [3] has as its system neuronal induced pluripotent stem cells (iPSCs) derived from TS patients. The settings on record: TS patient iPSC-derived neuronal cells; cited from earlier work.
Data set [4] relates to L-type channel of the Cav1.2 protein. Particulars: cited from earlier work.
Where [5] appears, read: verapamil at 250 mg/d, TS patient.

Turning to `[Li]` [Lithium], the tolerability result in the data set with patient with TS Type 2 (given for mood stabilization, complaints of increased lethargy and irritability) is reported as “not well tolerated”.
`COC(=O)C1=C(C)NC(C)=C(C(=O)OCCN(C)Cc2ccccc2)C1c1cccc([N+](=O)[O-])c1` (stereo not drawn) [Nicardipine]: the common side effects result in data set [1] is “headache, peripheral edema, dizziness, flushing, asthenia, angina, hypotension, nausea/vomiting, tachycardia, and palpitations”. The “penetration into the brain / crossing of the blood-brain barrier” value in data set [2] is “satisfactorily crosses”.
In the case of `CC[C@H](CO)Nc1nc(NCc2ccccc2)c2ncn(C(C)C)c2n1` [roscovitine], in data set [3], the “reduction in the proportion of TH-positive neurons” value is on record as 68% and the “reversal of excess expression of TH” value is listed as “succeeds in reversing”. Also, the “inactivation of the L-type channel” value in data set [4] is “enhanced (normalized)”.
As to `COc1ccc(CCN(C)CCCC(C#N)(c2ccc(OC)c(OC)c2)C(C)C)cc1OC` (stereo not drawn) [verapamil], in the data set on patient with TS Type 2 (setting [5]), the QT interval result is recorded as “no change”, the “episodes of atrial fibrillation” value was “continued to have some episodes” and the “number of ventricular fibrillation episodes” value is recorded as “marked decrease”.
